How the values were obtained:
[1] = target: mutated Abl (T315I) (human) (Homo sapiens, UniProt P00519, T315I); assay: Mutated Abl (T315I) (human) kinase assay, 33P-ATP filter binding; assay type: biochemical; details: for inhibition at 0.003 µM: 3 nM; for inhibition at 0.03 µM: 30 nM
Protocol: Mutated Abl (T315I) (Human)Kinase
In a final reaction volume of 25 μL, mutated Abl (T315I) (human) (5-10 mU) is incubated with 8 mM MOPS pH7.0, 0.2 mM EDTA, […] EAIYAAPFAKKK, 10 mM Mg(OAc)2 and [γ-33P-ATP] [specific activity approx. 500 cpm/pmol, concentration as required]. The reaction is initiated by the addition of the MgATP mix. After incubation for 40 minutes at room temperature, the reaction is stopped by the addition of 5 μL of a 3% phosphoric acid solution. 10 μL of the reaction is then spotted onto a P30 filtermat and washed three times for 5 minutes in 75 mM phosphoric acid and once in methanol prior to drying and scintillation counting.

[2] = system: c-Abl kinase (K562 cells); assay: In-vitro cell proliferation assay (MTT), K562 cells; assay type: cell-based; details: for inhibition at 0.001 µM / inhibition at 0.01 µM / inhibition at 0.1 µM: Homo sapiens
Protocol: In-vitro Cell Proliferation Assay
K562/U937 cells (2×10^4 per well) were incubated with the test compounds/vehicle in a total volume of 200 μL of media at 37° C. with 5% CO2. On day 4, 20 μL MTT 5 mg/ml was added and the cells were incubated for 4-5 hours followed by addition of 100 μL of 10% SDS prepared in 0.06N HCl. The cells were incubated overnight at 37° C. with 5% CO2. On Day 5 the optical density was measured at 570 nm with 630 nm as reference wavelength. The optical density in the vehicle treated wells was compared with that of the test compound treated wells.

inhibition at 0.003 µM [1] | inhibition at 0.03 µM [1] | Structure (SMILES) | inhibition at 0.001 µM ([2]; 1 nM) | inhibition at 0.01 µM ([2]; 10 nM) | inhibition at 0.1 µM ([2]; 100 nM) | c-Abl kinase (K562 cells); % Inhibition ([2]; 1 nM) | c-Abl kinase (K562 cells); % Inhibition ([2]; 10 nM) | c-Abl kinase (K562 cells); % Inhibition ([2]; 100 nM)
87% | 98% | Cc1ccc(C(=O)NNC(=O)c2c(C)cccc2Cl)cc1C#Cc1ccc(NC(=O)C2CC2)nc1 [I.1, cyclopropanecarboxylic acid (5-{5-[N′-(2-chloro-6-methylbenzoyl)hydrazinocarbonyl]-2-methyl-phenylethynyl}-pyridin-2-yl)amide] | 84.7% | 91.1% | 87% | – | – | –
50% | 87% | Cc1ccc(C(=O)NNC(=O)c2c(C)cccc2Cl)cc1C#Cc1ccc(NC(=O)CN(C)C)nc1 [I.2, N-(5-{5-[N′-(2-chloro-6-methylbenzoyl)hydrazinocarbonyl]-2-methyl-phenylethynyl}-pyridin-2-yl)-2-dimethylaminoacetamide] | 71.6% | 82.5% | 82.9% | – | – | –
59% | 94% | Cc1ccc(C(=O)NNC(=O)c2c(C)cccc2Cl)cc1C#Cc1ccc(NC(=O)CCN2CCN(C)CC2)nc1 [I.3, N-(5-{5-[N′-(2-Chloro-6-methylbenzoyl)hydrazinocarbonyl]-2-methyl-phenylethynyl}-pyridin-2-yl)-3-(4-methyl-piperazin-1-yl)propionamide] | 75% | 85.5% | 87.9% | – | – | –
70% | 95% | Cc1ccc(C(=O)NNC(=O)c2c(C)cccc2Cl)cc1C#Cc1ccc(NC(=O)CN2CCC(N(C)C)CC2)nc1 [I.4, N-(5-{5-[N′-(2-Chloro-6-methyl-benzoyl)hydrazinocarbonyl]-2-methyl-phenylethynyl}-pyridin-2-yl)-2-(4-dimethylaminopiperidin-1-yl)acetamide] | 76.5% | 81.4% | 86.9% | – | – | –
66% | 96% | Cc1ccc(C(=O)NNC(=O)c2c(C)cccc2Cl)cc1C#Cc1ccc(NC(=O)CN2CCC(N(C)C)C2)nc1 (centres unmarked) [I.5, N-(5-{5-[N′-(2-Chloro-6-methyl-benzoyl)hydrazinocarbonyl]-2-methyl-phenylethynyl}-pyridin-2-yl)-2-(3-dimethylaminopyrrolidin-1-yl)acetamide] | 71.4% | 81.7% | 82.1% | – | – | –
68% | 89% | CC(=O)Nc1ccc(C#Cc2cc(C(=O)NNC(=O)c3c(C)cccc3Cl)ccc2C)cn1 [I.6, N-(5-{5-[N′-(2-Chloro-6-methyl-benzoyl)hydrazinocarbonyl]-2-methyl-phenylethynyl}-pyridin-2-yl)acetamide] | 88.4% | 91.6% | 91% | – | – | –
– | – | Cc1ccc(C(=O)NNC(=O)c2ccc(CN3CCN(C)CC3)cc2)cc1C#Cc1ccc(NC(=O)C2CC2)nc1 [I.7, Cyclopropanecarboxylic acid [5-(2-methyl-5-{N′-[4-(4-methylpiperazin-1-ylmethyl)benzoyl]-hydrazinocarbonyl}phenylethynyl)pyridin-2-yl]amide] | 24.6% | 78.6% | 85.9% | – | – | –
– | – | Cc1cn(-c2cc(C(=O)NNC(=O)c3ccc(C)c(C#Cc4ccc(NC(=O)C5CC5)nc4)c3)cc(C(F)(F)F)c2)cn1 [I.8, Cyclopropanecarboxylic acid [5-(2-methyl-5-{N′-[3-(4-methylimidazol-1-yl)-5-trifluoromethylbenzoyl]-hydrazinocarbonyl}phenylethynyl)pyridin-2-yl]amide] | 68.9% | 84% | 86.1% | – | – | –
– | – | Cc1ccc(C(=O)NNC(=O)c2c(C)cccc2Cl)cc1C#Cc1ccc(NC(=O)NC2CC2)nc1 [I.9, 1-(5-{5-[N′-(2-Chloro-6-methyl-benzoyl)-hydrazinocarbonyl]-2-methyl-phenylethynyl}-pyridin-2-yl)-3-cyclopropylurea] | 61% | 83.6% | 87.8% | – | – | –
– | – | Cc1ccc(C(=O)NNC(=O)c2c(C)cccc2Cl)cc1C#Cc1ccc(NC(=O)C(F)(F)F)nc1 [I.10] | – | – | – | 39.8% | 78.5% | 73.3%
– | – | Cc1ccc(C(=O)NNC(=O)c2ccc(CN3CCN(C)CC3)c(C(F)(F)F)c2)cc1C#Cc1ccc(NC(=O)C2CC2)nc1 [I.11, Cyclopropanecarboxylic acid [5-(2-methyl-5-{N′-[4-(4-methylpiperazin-1-yl-methyl)-3-trifluoromethylbenzoyl]-hydrazinocarbonyl}phenylethynyl)pyridin-2-yl]amide] | 54% | 58.3% | 57.2% | – | – | –
– | – | CCCC(=O)Nc1ccc(C#Cc2cc(C(=O)NNC(=O)c3c(C)cccc3Cl)ccc2C)cn1 [I.12] | – | – | – | 33.6% | 80.6% | –

Reference: patent publication US10150733B2, “Amidoheteroaryl aroyl hydrazide ethynes” (SUN PHARMA ADVANCED RESEARCH COMPANY LTD., priority 2015, dated 2018)
